In ChEMBL document CHEMBL5143692, “Design, synthesis and conformation-activity relationship analysis of LNA/BNA-type 5'-O-aminoribosyluridine as MraY inhibitors” (Bioorg Med Chem, 2022):
Converted amounts (≈) assume the structure as drawn.

What was measured:
[1] = system: Mycobacteroides abscessus; assay: Antibacterial activity against Mycobacterium abscessus ATCC 19977 assessed as inhibition of bacterial growth incubated for 5 days by microplate reader analysis; assay type: functional; details: ATCC 19977, 120 h, time 5 day
[2] = biological target: T1, Phospho-N-acetylmuramoyl-pentapeptide-transferase (Staphylococcus aureus, UniProt P0C1R8); assay: Inhibition of Staphylococcus aureus MraY assessed as reduction of dansylated lipid I formation using UDP-MurNAcdansylpentapeptide as substrate incubated for 3 to 4 hrs by fluorescence based analysis
T1 sequence (P0C1R8 whole entry): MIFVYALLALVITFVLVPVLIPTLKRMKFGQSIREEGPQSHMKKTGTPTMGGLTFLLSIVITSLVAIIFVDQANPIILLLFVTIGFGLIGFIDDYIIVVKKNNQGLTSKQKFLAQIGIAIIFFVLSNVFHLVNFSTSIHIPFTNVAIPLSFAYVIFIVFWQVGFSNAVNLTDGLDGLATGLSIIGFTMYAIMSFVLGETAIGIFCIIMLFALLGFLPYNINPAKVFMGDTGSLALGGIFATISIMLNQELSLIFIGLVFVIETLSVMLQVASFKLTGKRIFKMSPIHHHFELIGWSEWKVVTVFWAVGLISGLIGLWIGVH

Structure (SMILES) | MIC50 [1] [µg/mL] | IC50 [2] [µM]
CC[C@H](O[C@@H]1O[C@H](CN)[C@@H](O)[C@H]1O)[C@@]12CO[C@@H]([C@H](n3ccc(=O)[nH]c3=O)O1)[C@@H]2O | 32 (≈ 77 µM) | 4.5
NC[C@H]1O[C@@H](OC[C@@]23CO[C@@H]([C@H](n4ccc(=O)[nH]c4=O)O2)[C@@H]3O)[C@H](O)[C@@H]1O | > 32 | 46
NC[C@H]1O[C@@H](O[C@@H](C#Cc2ccccc2)[C@@]23CO[C@@H]([C@H](n4ccc(=O)[nH]c4=O)O2)[C@@H]3O)[C@H](O)[C@@H]1O | > 32 | 37

Results, then the compound that gave them:

MIC50 [1] [µg/mL] | IC50 [2] [µM] | Structure (SMILES)
> 32 | 20 | C#C[C@H](O[C@@H]1O[C@H](CN)[C@@H](O)[C@H]1O)[C@H]1O[C@@H](n2ccc(=O)[nH]c2=O)[C@H](O)[C@@H]1O
> 32 | 2.3 | NC[C@H]1O[C@@H](O[C@@H](C#Cc2ccccc2)[C@H]2O[C@@H](n3ccc(=O)[nH]c3=O)[C@H](O)[C@@H]2O)[C@H](O)[C@@H]1O
> 32 | 24 | C#C[C@H](O[C@@H]1O[C@H](CN)[C@@H](O)[C@H]1O)[C@@]12CO[C@@H]([C@H](n3ccc(=O)[nH]c3=O)O1)[C@@H]2O
